Data from patent US20240390521A1, “CHIMERIC MODIFIED ION CHANNELS AND USES THEREOF FOR TREATMENT OF TRIGEMINAL NERVE DISORDERS” (Kriya Therapeutics, Inc., priority 2023, published 2024).
Where a name gives a salt, the structure may show the parent alone.

Experiments:
[1] = target: α7^L131G, Q139L, Y217F-GlyR LGIC (Homo sapiens, UniProt P36544, L131G/Q139L/Y217F); experiment: Agonist potency at the modified chimeric LGIC; type: cell-based
[2] = system: m-α7-GlyR LGICs expressed in mouse cortical neurons; experiment: Evoked neuronal activity in mouse cortical neurons expressing m-α7-GlyR LGICs; type: cell-based; conditions: data not shown
[3] = Varenicline concentrations in blood, PFC and CSF after single oral administration; type: in vivo, rat; conditions: male rats
[4] = 28-day study: varenicline PK in blood samples; type: in vivo, rat
Procedure: A 28-day biodistribution/toxicity study was conducted.

rat IoN-CCI model = experiment: Rat IoN-CCI model of trigeminal neuralgia, von Frey filament escape threshold (ET); type: in vivo
Procedure: Infraorbital nerve (IoN) chronic constriction injury (IoN-CCI) is an art-recognized animal model of trigeminal neuralgia (Vos et al. J Neurosci 14 (5 Pt 1): 2708-2723, 1994).
Mechanical allodynia was measured using a von Frey filament assay to define the escape threshold [ET]) in the rat IoN-CCI model. The total study duration was 6 months with two intermittent time points (2-and 4-months). Behavioral efficacy, as assessed by ET, and transgene expression in the trigeminal ganglion were evaluated.
Twelve groups of male and female adult rats were treated. AAV5-m-α7-GlyR LGIC vectors were injected percutaneously into the left trigeminal ganglion whereas the right untreated trigeminal ganglion served as control.
Naïve animals (no IoN-CCI, no AAV5-m-α7-GlyR LGIC or varenicline dosing) served as intact controls for behavioral and molecular analysis.
Varenicline tartrate was administered orally. A tartrate correction factor of 1.71 was applied in dose formulations.
Efficacy presented below is a combination of all 3 time points (2, 4, and 6 months) for each treatment group.

CNS function = conditions: rat, in vivo
[5] = system: m-α7-GlyR ion channels in cultured hippocampal neurons; experiment: Sustained varenicline exposure of cultured hippocampal neurons expressing m-α7-GlyR; type: cell-based; conditions: varenicline 15 nM for 18 days; data not shown
m-α7-GlyR LGIC = target: T1, m-α7-GlyR LGIC (Homo sapiens, UniProt P36544, L131G/Q139L/Y217F); experiment: Constitutive activity of m-α7-GlyR LGIC without varenicline; type: in vivo, rodents; conditions: absence of varenicline
T1 construct: expressed in transfected cells; host or cells: rodent neurons expressing the transgene (mouse cortical neurons, cultured hippocampal neurons; rat trigeminal ganglion after AAV5 injection)

For `C[N+](C)(C)CCO` [choline], the EC50 [1] was greater than 50 µM.

With `c1cnc2cc3c(cc2n1)[C@@H]1CNC[C@H]3C1` [varenicline, 6,10-Methano-6H-pyrazino[2,3-h][3]benzazepine, 7,8,9,10-tetrahydro-5,8,14-triazatetracyclo[10.3.1.02,11.04,9]hexadeca-2,4,6,8,10-pentaene tartrate salt] the “effect of activation by varenicline on evoked neuronal activity” value [2] was “reversible inhibition of evoked neuronal activity”, the “time of peak varenicline concentration in CSF” value [3] was 60 min and the “time of peak varenicline concentration in PFC” value [3] was 90 min. For the same molecule, the “time of peak varenicline concentration in blood” value [3] was 60 min, the “decrease of varenicline level” value ([4]; 6 hours post-dose vs 2 hours, 1 mg/kg p.o.) was “approximately 50%” and the concentration at 2 h ([4]; rat, blood, po, 2 hours post-dose, 1 mg/kg p.o., average across groups) was roughly 480 nM. For the same molecule, the concentration at 24 h ([4]; rat, blood, po, 24 hours post final dose, 1 mg/kg p.o. daily, average) was 4.4 nM, the “sex differences in plasma varenicline levels” value ([4]; rat, in vivo) was “no sex differences in plasma varenicline levels” and the “improvement of pain sensitivity, single agent alone” value (rat IoN-CCI model; Group 6 varenicline alone, Group 7 AAV5-m-α7-GlyR LGIC (6×10^8 vg) alone, tartrate salt) was “neither varenicline alone nor AAV5-m-α7-GlyR LGIC alone (Groups 6 and 7, respectively) demonstrated improved pain sensitivity”. The “varenicline levels at the time of sample collection” value (rat IoN-CCI model; all animals receiving treatment) was “within predictable levels”, the “treatment related changes in the neurological assessments” value (CNS function) was “no AAV5-m-α7-GlyR LGIC, varenicline or AAV5-m-α7-GlyR LGIC+varenicline related changes in the neurological assessments” and the “tachyphylaxis or down regulation of expressed m-α7-GlyR LGICs” value [5] was “did not result in tachyphylaxis or down regulation”.

B1: m-α7-GlyR LGIC: human chimeric ion channel: modified nicotinic α7 receptor binding domain and glycine channel ion pore domain; SEQ ID NO: 1 (protein)
chain: MRCSPGGVWLALAASLLHVSLQGEFQRKLYKELVKNYNPLERPVANDSQPLTVYFSLSLLQIMDVDEKNQVLTTNIWLQMSWTDHYLQWNVSEYPGVKTVRFPDGQIWKPDILLYNSADERFDATFHTNVGVNSSGHCLYLPPGIFKSSCYIDVRWFPFDVQHCKLKFGSWSYGGWSLDLQMQEADISGYIPNGEWDLVGIPGKRSERFYECCKEPFPDVTFTVTMRRRMGYYLIQMYIPSLLIVILSWISFWINMDAAPARVGLGITTVLTMTTQSSGSRASLPKVSYVKAIDIWMAVCLLFVFSALLEYAAVNFVSRQHKELLRFRRKRRHHKEDEAGEGRFNFSAYGMGPACLQAKDGISVKGANNSNTTNPPPAPSKSPEEMRKLFIQRAKKIDKISRIGFPMAFLIFNMFYWIIYKIVRREDVHNQ
For B1, the constitutive activity (m-α7-GlyR LGIC) was “no constitutive activity”.
